# Test results from patent US20040077616A1, “Spirocyclopropyl amides and acids and their therapeutic applications” (priority 2002, published 2004).
# Assays:
# CD-1 mice [1] = experiment: Maximal Electroshock Procedure; type: in vivo; settings: Mus musculus, po, p.o. 30 minutes prior to electrical stimulation, PROBIT analysis, read-out: ED50 (dose at which 50% of the mice were protected from tonic seizures)
# Description: (§1) Adult, male, CD-1 mice (22-25 grams) were obtained from Charles River Laboratories (Portage, Mich.) and housed at Abbott Laboratories (Abbott Park) under standard lighting conditions of 12 hours on/12 hours off, with lights on at 6 a.m. Food and water were provided ad libitum and mice weighed 25-35 grams at the time of testing.
# (§2) Compounds were prepared for oral administration by suspending them in a vehicle of 100 μL Tween® 80 per mL hydroxypropyl methylcellulose (2 mg/mL, Abbott Laboratories). Compound solutions were administered at a volume of 10 mL/kg, p.o.
# The method used was similar to that of E. A. Swinyard, General principles: Experimental selection, quantification and evaluation of anti-convulsants, Anti-epileptic Drugs, Third Edition, R. Levey, et al., Editors. 1989, Raven Press Ltd: New York. Mice were pretreated orally with compounds of the present invention 30 minutes prior to electrical stimulation. Electrical stimulation consisted of pulsed electrical current (50 mA, 0.4 second duration, pulse width 0.5 msec, 60 pulses/sec) applied via corneal electrodes to induce seizure. The stimulation was delivered with an ECT Unit (Ugo Basile #7801). […] The percent protection from tonic seizures was calculated by dividing the number of protected mice by the total number in the group. […]
# CD-1 mice [2] = experiment: Subcutaneous Pentylenetetrazole (PTZ) Seizure Procedure; type: in vivo; settings: Mus musculus; PTZ 85 mg/kg s.c., compound p.o. 30 minutes prior to PTZ injection, linear regression; read-out: ED50 (dose at which 50% of the mice were protected from tonic seizures)
# Description: as §1, §2
# The method used was similar to that of E. A. Swinyard, General principles: Experimental selection, quantification and evaluation of anti-convulsants, Anti-epileptic Drugs, Third Edition, R. Levey, et al., Editors. 1989, Raven Press Ltd: New York. During the experiment the mice were housed individually in clear polycarbonate cages for observation. […] Seizures were induced by the subcutaneous injection of pentylenetetrazole (PTZ, 85 mg/kg) just below the nape of the neck. […] A total of 20 mice were used in each group. The ED50for the compounds were calculated using linear regression and represent the dose at which 50% of the mice were protected from tonic seizures.
structure (smiles),measurement,setting,value
CCCC(CCC)C(=O)O [Valproate],ED50,CD-1 mice [1],1200 µmol/kg
same,ED50,CD-1 mice [2],1800 µmol/kg
